In general, IC50 refers to the concentration that inhibits the measured activity by half. The low end stands for greater potency in that assay, the high end for weaker potency in that assay.

The values that follow come from US20150005288A1, “SUBSTITUTED PHENYLIMIDAZOPYRAZOLES AND USE THEREOF” (Bayer Intellectual Property GmbH, priority 2012, published 2015).

In assay [1] the target is T1, intracellular domain of human Tie2 (GST fusion protein) (Homo sapiens, UniProt Q02763).
T1 construct: intracellular domain of human Tie2 (amino acids 776-1124); made in house; host or cells: Baculovirus-infected insect cells (Hi5)
T1 sequence (Q02763 776-1124): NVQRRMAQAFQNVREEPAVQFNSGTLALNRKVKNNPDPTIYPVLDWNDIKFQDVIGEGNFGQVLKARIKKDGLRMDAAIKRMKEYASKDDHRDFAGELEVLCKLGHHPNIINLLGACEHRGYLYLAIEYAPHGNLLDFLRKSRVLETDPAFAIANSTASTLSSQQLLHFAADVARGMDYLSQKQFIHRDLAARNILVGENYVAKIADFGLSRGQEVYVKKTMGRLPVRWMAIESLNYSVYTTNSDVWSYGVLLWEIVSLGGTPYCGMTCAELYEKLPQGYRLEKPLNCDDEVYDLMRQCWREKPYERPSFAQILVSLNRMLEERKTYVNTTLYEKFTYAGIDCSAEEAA
As to the kind of experiment: Tie2 kinase assay (Tie2-TR-FRET). The class given is biochemical. To be noted: ATP concentration 1 mM, in some cases means of several independent determinations. The procedure, abridged:
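GST fusion of human Tie2 intracellular domain (aa 776-1124, Hi5-expressed), ~30 ng/ml, pre-incubated 15 min with compound, then 1 mM ATP and 1 μM biotinylated peptide, 60 min at 22 °C, pH 7. TR-FRET (Eu anti-phosphotyrosine/streptavidin-XL665, 665/620 nm ratio). […] 20 μM–0.073 nM in duplicate; IC50 by 4-parameter fit.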
(In general: TR-FRET usually uses a lanthanide donor and a delayed reading to cut background.)

A further assay concerns the target T2, endogenous Tie2 receptor (Homo sapiens, UniProt Q02763).
T2 construct: the endogenous Tie2 receptor; host or cells: HUVEC (human umbilical vein endothelial cells)
As to the kind of experiment: Tie2-pTyr-ELISA: autophosphorylation of endogenous Tie2 receptor in HUVEC. The class given is cell-based. To be noted: autophosphorylation elevated by sodium orthovanadate (4 mM), Tie2/phosphotyrosine sandwich ELISA, from 2-7 independent measurements. Here is the method:
The cellular activity of the compounds according to the invention as Tie2 kinase inhibitors was determined in human endothelial cells (HUVEC) by measuring the inhibition of the autophosphorylation, elevated by treatment with sodium orthovanadate, of the endogenous Tie2 receptor by means of a Tie2/phosphotyrosine sandwich ELISA.
Human endothelial cells (human umbilical vein endothelial cells, HUVEC) were obtained from Cellsystems (FC-0003), cultured in Vasculife VEGF complete medium (Cellsystems, LL-1020) with 2% foetal calf serum (FCS) at 37° C./5% CO2 and used for Tie2-ELISA measurements up to passage 8.
HUVEC were plated in a culture volume of 100 μl of Vasculife VEGF complete medium at a cell density of 30 000 cells per well in transparent collagen-coated 96-well cell culture plates (Falcon, #353075) and incubated in an incubation cabinet at 37° C./5% CO2 overnight. The test substances dissolved in DMSO were used to prepare in each case one dilution series in Vasculife VEGF low-serum medium [basal medium with LifeFactors (Cellsystems, LM-0002), without FCS, with 0.1% BSA] without sodium orthovanadate and one dilution series in Vasculife VEGF low-serum-medium with 8 mM sodium orthovanadate in the desired concentrations in the range from 10 pM to 10 μM, the final DMSO concentration being 1%. After removal of the complete medium, 100 μl per well of the dilute substances in low-serum medium without sodium orthovanadate were pipetted onto the cells, and the plates were incubated in an incubation cabinet at 37° C./5% CO2 for 10 min. A further 100 μl of the same substance dilution in low-serum medium with 8 mM sodium orthovanadate were then pipetted into the respective well and the cells were incubated in a volume of now 200 μl in the presence of 4 mM sodium orthovanadate at the desired substance concentration in an incubation cabinet at 37° C./5% CO2 for a further 20 min. The cell supernatant of the plates was then removed and the cells were washed once with 250 μl per well of cold PBS which contained 4 mM sodium orthovanadate. 120 μl of Duschl lysis buffer [50 mM HEPES pH 7.2, 150 mM NaCl, 1 mM MgCl2, 10% glycerol, 1.5% Triton X-100, 4 mM sodium orthovanadate, 250 μl S-PIC phosphatase inhibitor cocktail 2 (Sigma, P5726) and 1 tablet of Complete proteinase inhibitor mixture (Roche, #1836145) per 10 ml] were then added to the cells in each well. The plates were shaken briefly and then incubated on ice for 20 min, and the lysates in the cell culture plates were then frozen at −80° C. for at least 30 min.
For measuring the autophosphorylation of the endogenous Tie2 receptor in the cell lysates prepared, a self-prepared anti-Tie2 antibody directed against the N-terminus of the Tie-2 receptor (1.09 mg/ml) and an HRP-coupled anti-phosphotyrosine antibody (Sigma, A4595, clone pY-20) were used. White 96-well ELISA plates (Lumitrac600, Greiner, #655074) were incubated with 100 μl per well of a 1:1000 dilution of the anti-Tie2 antibody in coating buffer [15 mM Na2CO3, 35 mM NaHCO3, pH 9.6] with shaking at 4° C. overnight. The coated ELISA plates were washed three times with 250 μl PBST buffer [0.1% Tween-20 in PBS], the wells were blocked with 250 μl 3% BSA in PBST buffer with shaking at RT for 1-6 h and washed three more times with 250 μl PBST buffer. From the cell lysate plates thawed in the fridge, in each case 100 μl of lysate were transferred into the coated wells of the ELISA plates, and the plates were incubated with shaking at 4° C. overnight. The plates were washed three times with in each case 250 μl of PBST buffer, and 100 μl of a 1:5000 dilution of the anti-phosphotyrosine HRP antibody in 3% Prionex (Calbiochem, #529600) in PBST were then pipetted into each well and the plates were incubated with shaking and protected from light at 4° C. overnight. […]

T2 sequence (Q02763 23-1124): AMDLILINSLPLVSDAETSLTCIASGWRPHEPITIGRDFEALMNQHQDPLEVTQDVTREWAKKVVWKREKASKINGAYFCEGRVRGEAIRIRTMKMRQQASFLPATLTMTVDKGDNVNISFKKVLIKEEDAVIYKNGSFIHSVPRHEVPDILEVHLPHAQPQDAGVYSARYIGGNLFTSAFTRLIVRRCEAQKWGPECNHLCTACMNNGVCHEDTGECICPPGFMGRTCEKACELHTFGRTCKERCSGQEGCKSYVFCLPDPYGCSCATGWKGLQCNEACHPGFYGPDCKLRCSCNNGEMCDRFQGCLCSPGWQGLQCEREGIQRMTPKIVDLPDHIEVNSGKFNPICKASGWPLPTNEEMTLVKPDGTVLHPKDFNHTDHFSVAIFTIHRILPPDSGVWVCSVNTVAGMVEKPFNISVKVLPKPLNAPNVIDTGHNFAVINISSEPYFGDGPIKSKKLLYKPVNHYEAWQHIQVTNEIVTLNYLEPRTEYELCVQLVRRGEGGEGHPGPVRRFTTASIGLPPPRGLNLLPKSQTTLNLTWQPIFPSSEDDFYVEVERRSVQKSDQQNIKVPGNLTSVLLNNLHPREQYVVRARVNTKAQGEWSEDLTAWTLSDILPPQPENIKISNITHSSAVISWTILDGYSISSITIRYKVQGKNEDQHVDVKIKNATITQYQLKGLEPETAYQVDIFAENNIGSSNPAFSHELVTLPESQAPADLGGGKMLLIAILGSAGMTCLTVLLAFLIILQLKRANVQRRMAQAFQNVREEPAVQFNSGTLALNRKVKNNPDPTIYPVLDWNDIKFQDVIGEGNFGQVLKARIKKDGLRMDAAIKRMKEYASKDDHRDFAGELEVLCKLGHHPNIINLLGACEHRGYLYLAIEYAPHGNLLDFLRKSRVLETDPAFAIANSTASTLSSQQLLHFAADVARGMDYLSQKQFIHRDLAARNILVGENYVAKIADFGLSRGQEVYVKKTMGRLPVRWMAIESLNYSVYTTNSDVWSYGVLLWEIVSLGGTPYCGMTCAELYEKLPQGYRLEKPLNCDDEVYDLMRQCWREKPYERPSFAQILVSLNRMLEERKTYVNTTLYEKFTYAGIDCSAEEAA

Consider `Cc1ccc(NC(=O)c2cc(S(C)(=O)=O)cc(S(F)(F)(F)(F)F)c2)cc1-n1ccn2nc(-c3cccnc3)cc12` [Example 26, N-{4-Methyl-3-[6-(pyridin-3-yl)-1H-imidazo[1,2-b]pyrazol-1-yl]phenyl}-3-(methylsulphonyl)-5-(pentafluoro-λ^6-sulphanyl)benzamide], for which the IC50 is 0.8 nM in assay [1] and 3 nM on endogenous Tie2 receptor.
For the molecule `Cc1ccc(NC(=O)c2cc(C#N)cc(S(F)(F)(F)(F)F)c2)cc1-n1cc(C)n2nc(-c3cn[nH]c3)cc12` [Example 12, 3-Cyano-N-{4-methyl-3-[3-methyl-6-(1H-pyrazol-4-yl)-1H-imidazo[1,2-b]pyrazol-1-yl]phenyl}-5-(pentafluoro-λ^6-sulphanyl)benzamide], the IC50 in assay [1] was 0.7 nM; on endogenous Tie2 receptor, 4.7 nM.
As for `Cc1cc(C)c(-n2ccn3nc(-c4cccnc4)cc23)cc1NC(=O)c1cc(C#N)cc(S(F)(F)(F)(F)F)c1` [Example 74, 3-Cyano-N-{2,4-dimethyl-5-[6-(pyridin-3-yl)-1H-imidazo[1,2-b]pyrazol-1-yl]phenyl}-5-(pentafluoro-λ^6-sulphanyl)benzamide], the IC50 in assay [1] amounted to 0.5 nM; on endogenous Tie2 receptor it was 0.6 nM.
Taken in the same sequence, the figures for `Cc1ccc(NC(=O)c2cc(-n3ccnc3C)cc(C(F)(F)F)c2)cc1-n1ccn2nc(-c3cn[nH]c3)cc12` [Example 6, 3-(2-Methyl-1H-imidazol-1-yl)-N-{4-methyl-3-[6-(1H-pyrazol-4-yl)-1H-imidazo[1,2-b]pyrazol-1-yl]phenyl}-5-(trifluoromethyl)benzamide] were 5 nM and 17 nM.
Regarding `Cc1cc(F)c(NC(=O)c2cc(C#N)cc(S(F)(F)(F)(F)F)c2)cc1-n1ccn2nc(-c3cccnc3)cc12` [Example 75, 3-Cyano-N-{2-fluoro-4-methyl-5-[6-(pyridin-3-yl)-1H-imidazo[1,2-b]pyrazol-1-yl]phenyl}-5-(pentafluoro-λ^6-sulphanyl)benzamide], the IC50 in assay [1] amounted to 0.5 nM; on endogenous Tie2 receptor, 1.7 nM.
Turning to `Cc1ccc(NC(=O)c2cc(-n3ccnc3C)cc(C(F)(F)F)c2)cc1-n1ccn2nc(-c3cccnc3)cc12` [Example 40, 3-(2-Methyl-1H-imidazol-1-yl)-N-{4-methyl-3-[6-(pyridin-3-yl)-1H-imidazo[1,2-b]pyrazol-1-yl]-phenyl}-5-(trifluoromethyl)benzamide], the IC50 is 0.5 nM in assay [1] and 2.3 nM on endogenous Tie2 receptor.
Taken in the same sequence, the figures for `Cc1ccc(NC(=O)c2cc(C#N)cc(S(F)(F)(F)(F)F)c2)cc1-n1ccn2nc(-c3cccnc3)cc12` [Example 28, 3-Cyano-N-{4-methyl-3-[6-(pyridin-3-yl)-1H-imidazo[1,2-b]pyrazol-1-yl]phenyl}-5-(pentafluoro-λ^6-sulphanyl)benzamide] were 2.1 nM and 3.6 nM.
`Cc1ccc(NC(=O)c2cc(CN3CCCC3)cc(C(C)(C)C)c2)cc1-n1ccn2nc(-c3cccnc3)cc12` [Example 51, 3-tert-Butyl-N-{4-methyl-3-[6-(pyridin-3-yl)-1H-imidazo[1,2-b]pyrazol-1-yl]phenyl}-5-(pyrrolidin-1-ylmethyl)benzamide]: the IC50 in assay [1] amounted to 0.7 nM; on endogenous Tie2 receptor it was 8.8 nM.
Taken in the same sequence, the figures for `Cc1ccc(NC(=O)c2cc(N3CCN(C)CC3)cc(C(C)(C)C)c2)cc1-n1ccn2nc(-c3cccnc3)cc12` [Example 48, 3-tert-Butyl-5-(4-methylpiperazin-1-yl)-N-{4-methyl-3-[6-(pyridin-3-yl)-1H-imidazo[1,2-b]-pyrazol-1-yl]phenyl}benzamide] were 0.3 nM and 6.4 nM.
Taken in the same sequence, the figures for `CNc1cc(C(=O)Nc2ccc(C)c(-n3ccn4nc(-c5cccnc5)cc34)c2)cc(C(C)(C)C)n1` [Example 66, 2-tert-Butyl-6-(methylamino)-N-{4-methyl-3-[6-(pyridin-3-yl)-1H-imidazo[1,2-b]pyrazol-1-yl]-phenyl}isonicotinamide] were 7.9 nM and 46 nM.
On the same counts, the results for `Cc1cc(C)c(-n2ccn3nc(-c4cccnc4)cc23)cc1NC(=O)c1cccc(S(F)(F)(F)(F)F)c1` [Example 73, N-{2,4-Dimethyl-5-[6-(pyridin-3-yl)-1H-imidazo[1,2-b]pyrazol-1-yl]phenyl}-3-(pentafluoro-λ^6-sulphanyl)benzamide] are 0.3 nM and 0.8 nM.
As for `Cc1cc(C)c(-n2ccn3nc(-c4cccnc4)cc23)cc1NC(=O)c1cc(C#N)nc(C(C)(C)C)c1` [Example 116, 2-tert-Butyl-6-cyano-N-{2,4-dimethyl-5-[6-(pyridin-3-yl)-1H-imidazo[1,2-b]pyrazol-1-yl]phenyl}-isonicotinamide], the IC50 in assay [1] is 0.5 nM; against endogenous Tie2 receptor, 2.9 nM.
Taken in the same sequence, the figures for `Cc1ccc(NC(=O)c2cc(C(C)(C)O)cc(S(F)(F)(F)(F)F)c2)cc1-n1ccn2nc(-c3cn[nH]c3)cc12` [Example 4, 3-(2-Hydroxypropan-2-yl)-N-{4-methyl-3-[6-(1H-pyrazol-4-yl)-1H-imidazo[1,2-b]pyrazol-1-yl]-phenyl}-5-(pentafluoro-λ^6-sulphanyl)benzamide] were 0.6 nM and 4.7 nM.
As for `Cc1ccc(NC(=O)c2cc(-n3ccnc3C)cc(S(F)(F)(F)(F)F)c2)cc1-n1ccn2nc(-c3cccnc3)cc12` [Example 16, 3-(2-Methyl-1H-imidazol-1-yl)-N-{4-methyl-3-[6-(pyridin-3-yl)-1H-imidazo[1,2-b]pyrazol-1-yl]-phenyl}-5-(pentafluoro-λ^6-sulphanyl)benzamide], the IC50 in assay [1] stood at 0.7 nM; against endogenous Tie2 receptor it was 3.2 nM.
Taken in the same sequence, the figures for `Cc1cc(NC(=O)c2cc(C#N)cc(S(F)(F)(F)(F)F)c2)cc(-n2ccn3nc(-c4cccnc4)cc23)c1C` [Example 102, 3-Cyano-N-{3,4-dimethyl-5-[6-(pyridin-3-yl)-1H-imidazo[1,2-b]pyrazol-1-yl]phenyl}-5-(pentafluoro-λ^6-sulphanyl)benzamide] were 19 nM and 18 nM.
Taken in the same sequence, the figures for `Cc1ccc(NC(=O)c2cc(C#N)cc(S(F)(F)(F)(F)F)c2)cc1-n1ccn2nc(-c3cnccn3)cc12` [Example 162, 3-Cyano-N-{4-methyl-3-[6-(pyrazin-2-yl)-1H-imidazo[1,2-b]pyrazol-1-yl]phenyl}-5-(pentafluoro-λ^6-sulphanyl)benzamide] were 28 nM and 8.9 nM.
Taken in the same sequence, the figures for `Cc1cc(Cl)c(-n2ccn3nc(-c4cccnc4)cc23)cc1NC(=O)c1cccc(S(F)(F)(F)(F)F)c1` [Example 157, N-{4-Chloro-2-methyl-5-[6-(pyridin-3-yl)-1H-imidazo[1,2-b]pyrazol-1-yl]phenyl}-3-(pentafluoro-λ^6-sulphanyl)benzamide] were 0.5 nM and 1 nM.
